Data on four compounds can be found in US20030181446A1, “Novel N-acylated heterocycles” (Recordati S.A., priority 2001, published 2003).

For orientation: Ki means a measure of affinity in units of concentration, obtained from inhibition or displacement.

The test system of assay [1] is rhythmic bladder-voiding contractions. The experiment in a line: Effects on rhythmic bladder-voiding contractions induced by bladder filling in anaesthetised rats. It is filed as in vivo, rat. The settings on record: intravenous administration. The procedure: Female Sprague-Dawley rats weighing 225-275 g (Crl: CDo Br, Charles River Italia) were used. The animals were housed with free access to food and water and maintained on a forced 12-hour alternating light-dark cycle at 22-24° C. for at least one week, except during the experiment. The activity on rhythmic bladder voiding contractions was evaluated according to the method of Dray (Dray J., Pharmacol. Methods, 13:157, 1985), with some modifications as in Guarneri (Guarneri, Pharmacol. Res. 27:173, 1993). Briefly, the rats were anaesthetised by subcutaneous injection of 1.25 g/kg (5 ml/kg) urethane, after which the urinary bladder was catheterised via the urethra using PE 50 polyethylene tubing filled with physiological saline. […]
From the cystometrogram, the number of contractions recorded 15 minutes before (basal values) and after treatment, as well as the mean amplitude of these contractions (mean height of the peaks in mmHg), was evaluated.
Since most compounds produced an effect that was relatively rapid in onset and led to a complete cessation of bladder contractions, bioactivity was conveniently estimated by measuring the duration of bladder quiescence (i.e. the length of the time during which no contractions occurred). The number of tested animals showing a reduction in the number of contractions higher than 30% of that observed in the basal period was recorded too. […]

For assay [2], the system named is bladder volume capacity (BVC) and micturition pressure (MP). Briefly: Effect on cystometric parameters in conscious rats after oral administration. The settings on record: 3 mg/kg p.o., 1-5 h after treatment, versus vehicle. It is filed as in vivo, rat. The procedure: Male Sprague-Dawley rats [Crl: CD° (SD) BR] of 300-400 g supplied by Charles River Italia were used. The animals were housed with free access to food and water and maintained on a forced 12-hour-light/12-hour-dark cycle at 22-24° C. of temperature, except during the experiment. To quantify urodynamic parameters in conscious rats, cystometrographic studies were performed according to the procedure previously reported (Guarneri et al., Pharmacol. Res. 24: 175, 1991).
Briefly, the rats were anaesthetised by intraperitoneal administration of 3 ml/kg of Equithensin solution (pentobarbital 30 mg/kg and chloral hydrate 125 mg/kg) and placed in a supine position. An approximately-10-mm-long midline incision was made in the shaved and cleaned abdominal wall. The urinary bladder was gently freed from adhering tissues, emptied and then cannulated via an incision in the bladder body, using a polyethylene cannula (0.58-mm internal diameter, 0.96-mm external diameter) which was permanently sutured with silk thread. The cannula was exteriorised through a subcutaneous tunnel in the retroscapular area, where it was connected to a plastic adapter in order to avoid the risk of removal by the animal. For drug testing, the rats were utilised one day after implantation.
On the day of the experiment, the rats were placed in modified Bollman cages, i.e. restraining cages that were large enough to permit the rats to adopt a normal crouched posture, but narrow enough to prevent turning around. […] The intraluminal-pressure signal during infusion of saline into the bladder was continuously recorded on a polygraph (Rectigraph-8K San-ei with BM614/2 amplifier from Biomedica Mangoni) and, from the cystometrogram, two urodynamic parameters were evaluated: bladder volume capacity (BVC) and micturition pressure (MP). […] Basal BVC and MP values were evaluated as mean of the values observed in the cystometrograms recorded in an initial period of 30-60 minutes. […] The bladder infusion restarted and changes in BVC and MP were evaluated from the mean values obtained in the cystometrograms observed during 1, 2, 3, 4 and 5 hours after treatment. […]
All data were expressed as mean±standard error. Time-course data were analysed by S.A.S./STAT software, version 6.12. The difference between vehicle and active-treatment effect was evaluated by: General Linear Model Procedure—Repeated Measures Analysis of Variance: Univariate test of Hypotheses for within Subject Effects—Analysis of Variance of Contrast Variables. […]

The target of assay [3] is T1, human 5HT1A-serotonergic receptor (Homo sapiens, UniProt P08908).
T1 construct: expressed in transfected cells; cell membranes
T1 sequence (P08908 1-422): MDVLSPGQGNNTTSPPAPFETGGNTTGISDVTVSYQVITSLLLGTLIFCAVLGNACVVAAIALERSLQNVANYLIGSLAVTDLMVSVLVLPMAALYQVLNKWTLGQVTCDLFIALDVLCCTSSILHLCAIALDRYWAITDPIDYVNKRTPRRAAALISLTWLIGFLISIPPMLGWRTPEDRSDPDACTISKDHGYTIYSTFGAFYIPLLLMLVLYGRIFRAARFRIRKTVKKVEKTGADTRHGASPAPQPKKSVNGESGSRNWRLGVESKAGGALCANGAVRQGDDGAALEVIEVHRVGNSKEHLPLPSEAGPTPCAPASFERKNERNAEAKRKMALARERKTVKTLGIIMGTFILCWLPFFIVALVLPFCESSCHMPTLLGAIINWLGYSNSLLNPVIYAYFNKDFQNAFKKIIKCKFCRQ
Briefly: Radioligand binding to recombinant 5-HT1A receptors. The settings on record: 1 nM [3H]8-OH-DPAT, membranes of HeLa cells transfected with human 5HT1A receptor; Ki from IC50 by Cheng & Prusoff; read-out: Binding affinity for 5HT1A receptors, Ki. The procedure: Genomic clone G-21 coding for the human 5HT1A-serotonergic receptor was stably transfected in a human cell line (HeLa). HeLa cells were grown as monolayers in Dulbecco's modified Eagle medium (DMEM), containing 10% foetal bovine serum, gentamicin ([…]) and 5% carbon dioxide, at 37° C. The cells were detached from the growth flask at 95% confluence by a cell scraper and were lysed in cold 5 mM Tris and 5 mM EDTA buffer (pH 7.4). The homogenates were centrifuged at 40000×g×20 minutes and the pellets were resuspended in a small volume of cold 5 mM Tris and 5 mM EDTA buffer (pH 7.4) and immediately frozen and stored at −70° C. until use. On the day of experiment, the cell membranes were resuspended in incubation buffer: 50 mM Tris HCl (pH 7.4), 2.5 mM MgCl2, […] (Fargin et al., Nature 335, 358-360, 1988). […] Non-specific binding was determined in the presence of 10 μM 5-HT. […]
The affinity of the tested compounds was evaluated as inhibition of specific binding of the radioligand to 5-HT1A receptors (IC50) by using the non-linear curve-fitting program Allfit (De Lean et al., Am. J. Physiol. 235, E97-E102 (1978). The IC50 value was converted to an affinity constant (Ki) by the equation of Cheng & Prusoff (Cheng Y. C., Prusoff W. H., Biochem. Pharmacol. 22, 3099-3108 (1973)).

Turning to `CCN(CC)CC#CCOC(=O)C(O)(c1ccccc1)C1CCCCC1` (centres unmarked) [Oxybutynin, oxybutynin], in assay [1], the “cessation of bladder contractions (in words)” value was “does not cause cessation of bladder contractions” and the “effect on amplitude of the contractions (in words)” value is listed as “only decreased the amplitude of the contractions in a dose-related manner”. Moreover, in assay [2], the “bladder volume capacity (BVC) change (in words)” value is listed as “slight, not-significant increase of BVC” and the “micturition pressure (MP) change (in words)” value is recorded as “greatly reduced the micturition pressure values”.
On to “1-(2-Ethylbutanoyl-1,2,3,4-tetrahydroquinoline-2-ylmethyl)-4-(4-indolyl)-piperazine [Example 24A]”, for which the Ki in assay [3] is 12.9 nM.
On the same count and under the same terms, as for `CC(C)Oc1cc(Cl)ccc1N1CCN(CC2CCc3ccccc3N2C(=O)C2CCCCC2)CC1` (centres unmarked) [Example 60A], the figure is 10.1 nM.
For `O=C(C1CCCCC1)N1c2ccccc2CCC1CN1CCN(c2cccc3[nH]ccc23)CC1` (racemic) [Example 1, 1-(1-Cyclohexanecarbonyl-1,2,3,4-tetrahydroquinoline-2-ylmethyl)-4-(4-indolyl)piperazine], in assay [2], the “bladder volume capacity (BVC) change (in words)” value is “effective in increasing the bladder volume capacity” and the “micturition pressure (MP) change (in words)” value was “without significant effects on micturition pressure”.
